According to ChEMBL document CHEMBL1201862, “PubChem BioAssay data set” (2004):
Calls of active or inactive are those of the source.

Key:
[1] = Vero cell cytotoxicity, dose response, cytotoxicity control for Vif-APOBEC3G degradation inhibitor project, Vero cells (AID 1117358); format: functional; details: Human immunodeficiency virus 1, Vero
[2] = molecular target: Protein-tyrosine kinase 2-beta (Homo sapiens, UniProt Q14289);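 note: potency of inhibitors of PYK2 kinase phosphorylation of poly-GT substrate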
[3] = molecular target: Mitogen-activated protein kinase 10 (Homo sapiens, UniProt P53779); assay: Dose response biochemical screening assay for inhibitors of c-Jun N-Terminal Kinase 3 (JNK3). [Related pubchem assays: 746 ]
Oxytocin receptor = Oxytocin receptor (Homo sapiens, UniProt P30559); assay: Fluorescence-based cell-based high throughput dose response assay for agonists of the Oxytocin Receptor (OXTR). [Related pubchem assays: 2435 (Primary screen (OXTR agonists in singlicate)), 434991 (Counterscreen (V1R agonists in triplicate)), 2482 (Summary (OXTR agonists)), 434963 (Confirmation screen (OXTR agonists in triplicate))]; format: functional
Vasopressin V1a receptor = Vasopressin V1a receptor (Homo sapiens, UniProt P37288); assay: Counterscreen for Oxytocin Receptor (OXTR) agonists: Fluorescence-based cell-based high throughput dose response assay to identify agonists of the vasopressin 1 receptor (V1R). [Related pubchem assays: 2435 (Primary screen (OXTR agonists in singlicate)), 434991 (Counterscreen (V1R agonists in triplicate)), 2482 (Summary (OXTR agonists)) …; format: functional
[4] = molecular target: E3 ubiquitin-protein ligase Mdm2 (Homo sapiens, UniProt Q00987); assay: enhancers of MDM2-luciferase reporter signal, concentration-effect titration, project on inhibitors of MDM2 ubiquitin ligase, cellular assay, luminescent readout, 384-well plate format (AID 1394); format: functional;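 note: MDM2 E3 inhibitors raise luminescence so EC50 is for signal enhancement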
Galanin receptor type 2 = Galanin receptor type 2 (Homo sapiens, UniProt O43603); assay: Dose Response cell-based high-throughput screening assay to identify antagonists of galanin receptor 2 (GALR2). [Related pubchem assays: 828, 866 ]; format: functional
[5] = molecular target: Glutathione-S-transferase (Schistosoma japonicum, UniProt Q26513); assay: biotin-GST/anti-GST TR-FRET signal inhibitors, dose response, artefact control for Vif-APOBEC3G degradation inhibitor project, biochemical (AID 1117362); format: functional
Protein Tat = Protein Tat (Human immunodeficiency virus type 1 group M subtype B (isolate HXB2)(HIV-1), UniProt P04608); format: functional;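 note: tat binding to TAR RNA read out by fluorescence polarization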
[6] = molecular target: Induced myeloid leukemia cell differentiation protein Mcl-1 (Homo sapiens, UniProt Q07820); format: functional
Protein Rev = Protein Rev (Human immunodeficiency virus type 1 group M subtype B (isolate WMJ22)(HIV-1), UniProt P05866); assay: HIV-1 Rev-RRE RNA binding disruptors, dose response, biochemical, protein-RNA interaction (AID 842); parameters: species or system Human immunodeficiency virus 1
[7] = molecular target: Ubiquitin carboxyl-terminal hydrolase BAP1 (Homo sapiens, UniProt Q92560); assay: BAP1 deubiquitinase inhibitors, dose response, biochemical (AID 714); format: functional
[8] = molecular target: Peroxisome proliferator-activated receptor gamma/Nuclear receptor coactivator 2 (Homo sapiens, UniProt P37231); format: functional;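 note: agonist potency for raising coactivator recruitment to the receptor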
[9] = molecular target: Peroxisome proliferator-activated receptor gamma/Nuclear receptor coactivator 3 (Homo sapiens, UniProt P37231); format: functional;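 note: agonist potency for raising coactivator recruitment to the receptor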
[10] = molecular target: Peroxisome proliferator-activated receptor gamma/Nuclear receptor coactivator 1 (Homo sapiens, UniProt P37231); format: functional;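 note: agonist potency as compounds enhance coactivator SRC-1 recruitment to PPARgamma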
H4 = assay: Luminescence Cell-Based Dose Response HTS to Identify Activators of 5'UTR Stem-Loop Driven Prion Protein mRNA Translation in H4 Neuroglioblastoma Cells. [Related pubchem assays: 1829 (Project Summary), 1814 (Primary HTS)]; format: functional; details: Homo sapiens
[11] = Luminescence Cell-Based Dose Confirmation HTS to Identify Activators of 5'UTR Stem-Loop Driven Alpha-Synuclein mRNA Translation in H4 Neuroglioblastoma Cells. [Related pubchem assays: 1829 (Project Summary), 1814 (Primary HTS)]; format: functional
[12] = Luminescence Cell-Based Dose Response HTS to Identify Activators of Luciferase Translation or Activity in H4 […] Cells. [Related pubchem assays: 1829 (Project Summary), 1814 (Primary HTS)]; format: functional
[13] = Luminescence-based cell-based high throughput dose response assay to identify activators of the DAF-12 from the parasite S. stercoralis (ssDAF-12).; format: functional
[14] = molecular target: T1, Alkaline phosphatase, tissue-nonspecific isozyme (Homo sapiens, UniProt P05186)
T1 sequence (P05186 whole entry): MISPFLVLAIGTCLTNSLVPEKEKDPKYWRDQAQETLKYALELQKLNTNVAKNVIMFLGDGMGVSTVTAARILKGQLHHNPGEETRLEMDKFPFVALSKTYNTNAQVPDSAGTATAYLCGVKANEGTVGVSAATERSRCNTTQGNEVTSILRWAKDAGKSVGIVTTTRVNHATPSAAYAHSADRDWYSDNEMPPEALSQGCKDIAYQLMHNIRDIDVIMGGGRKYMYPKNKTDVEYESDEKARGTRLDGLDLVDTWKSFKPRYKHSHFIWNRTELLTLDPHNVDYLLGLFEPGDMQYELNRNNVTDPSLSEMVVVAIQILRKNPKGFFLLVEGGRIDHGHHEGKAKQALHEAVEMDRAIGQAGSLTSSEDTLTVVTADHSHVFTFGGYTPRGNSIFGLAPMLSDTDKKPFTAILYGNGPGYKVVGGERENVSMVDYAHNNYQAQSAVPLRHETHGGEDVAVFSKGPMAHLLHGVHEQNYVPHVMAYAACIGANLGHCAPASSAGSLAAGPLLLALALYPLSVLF

[15] = Luminescence Cell-Based Dose-Confimation HTS to Identify Inhibitors of 5'UTR Stem-Loop Driven Alpha-Synuclein mRNA Translation in H4 Neuroglioblastoma Cells. [Related pubchem assays: 1827 (Project Summary), 1813 (Primary HTS)]; format: functional

Chain of Mitogen-activated protein kinase 10 (P53779 whole entry): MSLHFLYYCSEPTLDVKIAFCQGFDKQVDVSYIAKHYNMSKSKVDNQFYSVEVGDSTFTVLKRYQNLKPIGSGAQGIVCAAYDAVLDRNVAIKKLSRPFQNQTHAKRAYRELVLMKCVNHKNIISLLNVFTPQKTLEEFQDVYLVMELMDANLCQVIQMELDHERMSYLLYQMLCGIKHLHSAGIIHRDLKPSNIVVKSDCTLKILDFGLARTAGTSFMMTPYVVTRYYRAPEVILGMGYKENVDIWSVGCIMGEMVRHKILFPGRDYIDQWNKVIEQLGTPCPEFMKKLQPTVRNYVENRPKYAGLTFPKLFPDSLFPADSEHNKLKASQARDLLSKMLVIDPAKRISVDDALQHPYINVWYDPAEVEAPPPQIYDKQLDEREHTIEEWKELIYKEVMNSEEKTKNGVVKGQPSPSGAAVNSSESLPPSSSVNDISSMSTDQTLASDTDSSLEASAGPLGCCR
Chain of Protein Tat (P04608 whole entry): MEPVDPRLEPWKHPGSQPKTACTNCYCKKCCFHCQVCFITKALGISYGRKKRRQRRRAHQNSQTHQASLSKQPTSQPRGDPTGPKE
Chain of Ubiquitin carboxyl-terminal hydrolase BAP1 (Q92560 whole entry): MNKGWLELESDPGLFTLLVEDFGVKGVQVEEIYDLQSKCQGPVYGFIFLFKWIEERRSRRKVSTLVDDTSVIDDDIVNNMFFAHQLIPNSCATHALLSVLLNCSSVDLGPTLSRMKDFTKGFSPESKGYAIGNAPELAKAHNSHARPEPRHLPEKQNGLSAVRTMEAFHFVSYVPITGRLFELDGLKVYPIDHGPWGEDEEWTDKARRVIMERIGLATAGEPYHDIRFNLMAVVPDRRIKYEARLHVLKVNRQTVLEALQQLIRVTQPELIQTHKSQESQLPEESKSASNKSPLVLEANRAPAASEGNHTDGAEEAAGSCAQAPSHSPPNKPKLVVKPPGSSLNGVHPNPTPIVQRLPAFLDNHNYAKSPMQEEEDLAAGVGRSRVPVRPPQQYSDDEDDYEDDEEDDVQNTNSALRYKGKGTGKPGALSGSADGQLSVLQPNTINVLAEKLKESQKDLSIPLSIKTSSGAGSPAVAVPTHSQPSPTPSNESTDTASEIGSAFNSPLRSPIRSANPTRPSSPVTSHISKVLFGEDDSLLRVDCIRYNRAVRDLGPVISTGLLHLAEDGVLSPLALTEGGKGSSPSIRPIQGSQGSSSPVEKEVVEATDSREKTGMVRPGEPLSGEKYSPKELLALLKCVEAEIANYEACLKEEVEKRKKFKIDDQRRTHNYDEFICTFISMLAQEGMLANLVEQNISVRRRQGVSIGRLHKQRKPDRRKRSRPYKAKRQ
Chain of Protein-tyrosine kinase 2-beta (Q14289 whole entry): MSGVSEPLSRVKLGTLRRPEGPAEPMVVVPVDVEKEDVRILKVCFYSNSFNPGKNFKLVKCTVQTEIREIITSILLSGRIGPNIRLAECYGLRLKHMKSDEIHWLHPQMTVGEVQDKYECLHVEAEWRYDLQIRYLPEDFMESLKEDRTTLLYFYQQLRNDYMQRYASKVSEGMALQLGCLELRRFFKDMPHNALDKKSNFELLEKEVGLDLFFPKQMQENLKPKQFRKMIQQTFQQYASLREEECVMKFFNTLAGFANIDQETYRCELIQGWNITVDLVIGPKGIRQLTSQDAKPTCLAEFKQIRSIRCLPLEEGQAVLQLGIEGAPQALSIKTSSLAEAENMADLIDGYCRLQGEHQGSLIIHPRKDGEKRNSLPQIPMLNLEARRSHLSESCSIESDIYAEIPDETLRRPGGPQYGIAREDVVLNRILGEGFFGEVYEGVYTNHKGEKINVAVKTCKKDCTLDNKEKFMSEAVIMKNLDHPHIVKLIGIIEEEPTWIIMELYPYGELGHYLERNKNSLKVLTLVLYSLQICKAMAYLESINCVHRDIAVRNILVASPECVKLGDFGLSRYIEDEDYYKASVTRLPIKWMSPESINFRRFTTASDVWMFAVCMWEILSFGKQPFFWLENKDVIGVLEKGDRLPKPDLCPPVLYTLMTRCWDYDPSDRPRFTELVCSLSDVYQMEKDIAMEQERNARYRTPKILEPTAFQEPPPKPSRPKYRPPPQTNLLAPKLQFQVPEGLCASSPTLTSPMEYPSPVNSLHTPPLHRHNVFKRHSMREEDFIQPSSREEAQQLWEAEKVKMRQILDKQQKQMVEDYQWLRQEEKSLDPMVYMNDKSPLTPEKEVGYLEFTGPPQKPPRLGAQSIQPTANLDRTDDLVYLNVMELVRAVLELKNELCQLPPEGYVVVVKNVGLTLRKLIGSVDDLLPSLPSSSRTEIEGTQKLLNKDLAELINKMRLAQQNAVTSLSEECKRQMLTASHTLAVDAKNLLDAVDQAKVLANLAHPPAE
Chain of Induced myeloid leukemia cell differentiation protein Mcl-1 (Q07820 whole entry): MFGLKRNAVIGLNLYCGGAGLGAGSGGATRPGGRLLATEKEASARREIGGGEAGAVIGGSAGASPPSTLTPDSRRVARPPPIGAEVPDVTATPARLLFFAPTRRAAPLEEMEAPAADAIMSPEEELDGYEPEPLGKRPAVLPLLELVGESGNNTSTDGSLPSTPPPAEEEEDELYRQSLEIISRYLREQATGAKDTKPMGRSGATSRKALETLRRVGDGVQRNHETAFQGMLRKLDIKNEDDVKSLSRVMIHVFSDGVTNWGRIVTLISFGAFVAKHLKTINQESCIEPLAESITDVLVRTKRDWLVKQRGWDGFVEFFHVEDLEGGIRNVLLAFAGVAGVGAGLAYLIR
Chain of Oxytocin receptor (P30559 whole entry): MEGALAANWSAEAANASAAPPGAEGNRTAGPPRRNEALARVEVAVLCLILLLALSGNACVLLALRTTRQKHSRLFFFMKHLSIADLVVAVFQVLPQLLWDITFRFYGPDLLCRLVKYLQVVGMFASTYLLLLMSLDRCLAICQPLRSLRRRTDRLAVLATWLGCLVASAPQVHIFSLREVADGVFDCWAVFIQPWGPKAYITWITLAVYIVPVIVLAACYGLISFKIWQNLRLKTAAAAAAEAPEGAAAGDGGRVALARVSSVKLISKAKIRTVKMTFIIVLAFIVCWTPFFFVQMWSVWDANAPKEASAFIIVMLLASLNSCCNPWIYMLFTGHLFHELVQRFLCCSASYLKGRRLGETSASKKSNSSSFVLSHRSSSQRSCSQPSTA
Chain of Galanin receptor type 2 (O43603 whole entry): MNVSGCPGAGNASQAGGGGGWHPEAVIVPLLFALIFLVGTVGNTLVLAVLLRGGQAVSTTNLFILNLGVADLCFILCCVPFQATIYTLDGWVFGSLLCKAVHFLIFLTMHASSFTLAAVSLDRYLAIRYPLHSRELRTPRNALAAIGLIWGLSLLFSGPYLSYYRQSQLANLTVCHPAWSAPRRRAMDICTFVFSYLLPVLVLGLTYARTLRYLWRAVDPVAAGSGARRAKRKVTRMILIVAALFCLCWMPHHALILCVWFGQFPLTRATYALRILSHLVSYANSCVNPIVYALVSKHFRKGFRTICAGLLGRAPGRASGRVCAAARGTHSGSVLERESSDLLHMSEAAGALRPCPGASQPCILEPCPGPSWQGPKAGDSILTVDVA
Chain of Glutathione-S-transferase (Q26513 whole entry): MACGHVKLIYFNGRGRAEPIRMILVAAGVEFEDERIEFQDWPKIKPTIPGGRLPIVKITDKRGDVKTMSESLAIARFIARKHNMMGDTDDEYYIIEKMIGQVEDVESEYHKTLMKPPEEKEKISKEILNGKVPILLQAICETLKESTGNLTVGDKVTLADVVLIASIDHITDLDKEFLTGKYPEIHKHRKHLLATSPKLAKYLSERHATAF
Chain of Vasopressin V1a receptor (P37288 whole entry): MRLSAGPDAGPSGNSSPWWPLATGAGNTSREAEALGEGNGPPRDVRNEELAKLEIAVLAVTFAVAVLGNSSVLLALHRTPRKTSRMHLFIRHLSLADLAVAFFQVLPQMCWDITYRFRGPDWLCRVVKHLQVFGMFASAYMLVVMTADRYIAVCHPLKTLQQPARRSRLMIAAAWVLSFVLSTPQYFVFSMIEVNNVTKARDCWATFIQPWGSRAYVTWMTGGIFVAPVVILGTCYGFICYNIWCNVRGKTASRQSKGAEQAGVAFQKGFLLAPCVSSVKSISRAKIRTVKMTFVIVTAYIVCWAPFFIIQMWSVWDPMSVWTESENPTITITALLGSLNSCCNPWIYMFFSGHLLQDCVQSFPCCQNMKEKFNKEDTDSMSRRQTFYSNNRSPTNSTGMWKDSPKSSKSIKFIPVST
Chain of Protein Rev (P05866 whole entry): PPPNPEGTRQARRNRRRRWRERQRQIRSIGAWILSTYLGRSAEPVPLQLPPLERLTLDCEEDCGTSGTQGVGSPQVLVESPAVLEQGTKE
Chain of E3 ubiquitin-protein ligase Mdm2 (Q00987 whole entry): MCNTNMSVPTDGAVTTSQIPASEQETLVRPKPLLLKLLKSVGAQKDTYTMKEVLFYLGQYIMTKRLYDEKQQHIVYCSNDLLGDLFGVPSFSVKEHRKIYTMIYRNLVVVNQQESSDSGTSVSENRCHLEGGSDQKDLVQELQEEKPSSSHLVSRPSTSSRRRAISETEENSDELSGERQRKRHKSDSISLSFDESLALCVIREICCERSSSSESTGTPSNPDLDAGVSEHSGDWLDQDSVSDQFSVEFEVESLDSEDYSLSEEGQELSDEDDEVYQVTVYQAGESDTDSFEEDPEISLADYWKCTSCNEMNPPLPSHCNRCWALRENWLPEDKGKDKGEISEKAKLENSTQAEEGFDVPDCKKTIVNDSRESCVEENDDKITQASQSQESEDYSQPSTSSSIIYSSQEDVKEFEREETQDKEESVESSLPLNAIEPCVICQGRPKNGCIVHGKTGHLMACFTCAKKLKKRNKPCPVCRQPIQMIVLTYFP

## O=C(c1ccco1)N(CCC(c1ccccc1)c1ccco1)Cc1ccc(F)cc1 (stereo unspecified)
[1]
  CC50: > 40 µM (active)

## COc1ccc([N+](=O)[O-])cc1COc1cc(C)cc2oc(=O)cc(-c3ccccc3)c12
[2]
  IC50: > 69.5 µM (not active)

## Cc1oc2ccc(OCC(N)=O)cc2c1C(=O)OC(C)C
[3]
  IC50: 44.9 µM (not active)

## Oc1ccc(Cl)cc1CNCc1ccc(F)cc1
Oxytocin receptor
  EC50: 15.5 µM (not active)
Vasopressin V1a receptor
  EC50: 11 µM (not active)

## Cc1ccc(-n2c(C)cc(C=C3C(=O)CC(C)(C)CC3=O)c2C)cc1
[4]
  EC50: 17.4 µM (not active)

## CCOC(=O)COc1ccc(S(=O)(=O)NCc2ccncc2)cc1
Galanin receptor type 2
  IC50: > 42 µM (not active)

## CC1=Nc2cccc3cccc(c23)N1
[5]
  IC50: > 100 µM (active)
Protein Tat
  IC50: > 100 µM (inconclusive)
[6]
  IC50: 3.71 µM (active)

## CC(NCc1ccc(N(C)C)cc1)C1CC2CCC1C2 (stereo unspecified)
Protein Rev
  IC50: > 79.4 µM (not active)

## CCc1nc(SCC(=O)Nc2ccc3c(c2)OCCO3)c2oc3ccccc3c2n1
[7]
  IC50: 13.9 µM (active)
[8]
  EC50: 23.3 µM (not active)
[9]
  EC50: > 79.4 µM (not active)
[10]
  EC50: > 79.4 µM (not active)

## Cc1cc(C)c(C#N)c(SCc2nc3ccccc3[nH]2)n1
H4
  EC50: 44.6 µM (active)
[11]
  EC50: 0.262 µM (active)
[12]
  EC50: 14.9 µM (active)
[13]
  IC50: > 67.5 µM (inactive)
[14]
  EC50: > 100 µM (not active)

## Nc1nc(CSc2nnnn2-c2ccccc2)nc(Nc2ccccc2)n1
[15]
  EC50: 15.5 µM (active)
